Assay results: EP2906547B2, “COSMETIC COMPOSITIONS CONTAINING AT LEAST ONE HYDROTROPE AND AT LEAST ONE ACTIVE COMPOUND” (priority 2012, dated 2014)
≈ marks a conversion by molar mass, not a printed value. Read-outs that look alike come from different tables or passages of the source.

Key:
[1] = Solubility of adenosine in water with and without hydrotropes
[2] = Solubility of baicalin in water as a function of pH; type: physicochemical; details: for solubility: water
physchem = assay: physchem
Protocol: Another aspect of the text discloses a method for preparing the aqueous compositions comprising including in the composition at least one phenolic compound and at least one hydrotrope in an amount sufficient to solubilize the phenolic compound, such as a polyphenol, in water. A hydrotrope solution is prepared by completely dissolving one or more hydrotropic agents into water. At least one phenolic compound is then added in and mixed using a stirring bar or any other mixer. […] Everything is prepared at room temperature to keep the stability of the phenolic compound(s).
Everything is prepared at room temperature to keep the stability of the phenolic compounds.

[3] = Stability of solutions on dilution in water
[4] = 5% nicotinamide and 5% caffeine, room temperature
[5] = 5% nicotinamide, 5% caffeine, water

For `Nc1ncnc2c1ncn2[C@@H]1O[C@H](CO)[C@@H](O)[C@H]1O` [Adenosine], the “Solubility in water with hydrotropes” value [1, 4] was >3 %(w/w) and the solubility thermodynamic ([1]; water) was under 5000 µg/mL.
For `O=C(O)[C@H]1O[C@@H](Oc2cc3oc(-c4ccccc4)cc(=O)c3c(O)c2O)[C@H](O)[C@@H](O)[C@@H]1O` [Baicalin], the “pH at which degradation happens” value ([2]; in water) was over 5, the solubility ([2]; pH 3, water, in water, pH 3, read-out: Solubility) was 16 µg/mL (≈ 35.8 µM) and the solubility ([2]; pH 3.5, water, in water, pH 3.5, read-out: Solubility) was 21 µg/mL (≈ 47 µM). The solubility ([2]; pH 4, water, in water, pH 4, read-out: Solubility) was 40 µg/mL (≈ 89.6 µM), the solubility ([2]; pH 4.5, water, in water, pH 4.5, read-out: Solubility) was 84 µg/mL (≈ 188 µM) and the solubility ([2]; pH 4.5, water, without hydrotrope, natural pH -4.5, read-out: solubility in water) was under 100 µg/mL. For the same compound, the solubility ([2]; pH 5, water, in water, pH 5, read-out: Solubility) was 350 µg/mL (≈ 784 µM), the water solubility (physchem; 2% caffeine in water) was 0.11% and the “Solubility in water with hydrotropes” value (physchem; [5]) was >1 % (w/w). For the same compound, the “amount solubilized in water” value (physchem; [5]) was “approximately 1%”, the solubility thermodynamic (physchem; water) was under 100 µg/mL and the “stability of dilution in water” value ([3]; hydrotrope solution diluted in water) was “still stable”. For the same compound, the “stability of dilution in water” value ([3]; solution in organic solvent (e.g. PEG-4) diluted in water, crystallization or precipitation occurs) was “not stable any more”.
In the case of `O=c1oc2c(O)c(O)cc3c(=O)oc4c(O)c(O)cc1c4c23` [Ellagic acid], the “Solubility in water with hydrotropes” value (physchem; [4]) is reported as >0.01 % (w/w) and the solubility thermodynamic (physchem; water) is reported as under 10 µg/mL.
In the case of `COc1ccc([C@@H]2CC(=O)c3c(O)cc(O[C@@H]4O[C@H](CO)[C@@H](O)[C@H](O)[C@H]4O[C@@H]4O[C@@H](C)[C@H](O)[C@@H](O)[C@H]4O)cc3O2)cc1O` [Neohesperidin], the “Solubility in water without hydrotropes” value (physchem; water) is reported as <0.05 % (w/w).
In the case of `Oc1ccc(C=Cc2cc(O)cc(O)c2)cc1` [Resveratrol], the “Solubility in water with hydrotropes” value (physchem; [5]) is reported as >0.75 % (w/w) and the solubility thermodynamic (physchem; water) is reported as under 50 µg/mL.
With `O=C1c2c(O)cc(O)cc2O[C@H](c2ccc(O)c(O)c2)[C@H]1O` [Taxifolin] the “Solubility in water with hydrotropes” value (physchem; [4]) was >1 % (w/w) and the solubility thermodynamic (physchem; water) was under 1000 µg/mL.
